Measurements taken from patent US6664231B1, “Anti-fungal peptides” (priority 1993, dated 2003).

How the values were obtained:
Candida krusei = test: Radial diffusion assay, Candida species (Table 2); type: cell-based
Procedure: (§1) The anti-fungal activity of Domain III derived peptides was also evaluated in vitro against a variety of fungal species, including Candida glabrata, Candida krusei, Candida lusitaniae, Candida parapsilosis, and Candida tropicalis. For these experiments, one colony of each of the above-listed Candida strains was picked from a Sabouraud's dextrose agar (SDA) plate and inoculated into 5 mL of Sabouraud's dextrose broth (SDB, 2% dextrose and 1% neopeptone) or, for C. krusei, Yeast Malt broth (YM, Becton Dickenson, Cockeysville, Md., cat no. BL 11405) in 12 mL polyproplyene snap-cap tubes. The tube cultures were incubated overnight with shaking at 37° C.
(§2) Cultures were harvested when the OD570 of a 1:10 dilution was greater than or equal to the following values: 0.083 for Candida glabrata, 0.154 for Candida krusei, 0.117 for Candida lusitaniae, 0.076 for Candida parapsilosis, and 0.192 for Candida tropicalis. Cells were centrifuged for 7 minutes in an Eppendorf microfuge at 3,000 rpm (about 1,500 g). The cell pellet was resuspended in 1 mL PBS and approximately 1×10^7 cells in about 0.5 mL were added to 10 mL of cooled underlay agar (3% SBD, 1% agarose, 0.02% Tween 20, 10 mM sodium phosphate buffer, pH 7.4 at about 45° C.). The suspension was poured into square petri plates, allowed to solidify, and wells cut as described above.
(§3) Peptides were two-fold serially diluted with D-PBS from about 20 μL of a starting concentration of approximately 1 mg/mL. Five μL of peptide dilution were added per well and allowed to diffuse for at least about 30 minutes into the agar at […] (to allow complete diffusion). Then 10 mL of molten overlayer agarose (6% SDB, 1% agarose, 10 mM sodium phosphate buffer, pH 7.4 at about 45° C.) were added and the plates were incubated inverted at […] overnight. Plates were stained with a dilute Coomassie solution, inhibition zones were measured with calipers and net areas were calculated, then converted to pmole values by PROBIT analysis.

Candida tropicalis = test: Radial diffusion assay, Candida species (Table 2); type: cell-based
Procedure: as §1, §2, §3

Candida glabrata = test: Radial diffusion assay, Candida species (Table 2); type: cell-based
Procedure: as §1, §2, §3

Candida lusitaniae = test: Radial diffusion assay, Candida species (Table 2); type: cell-based
Procedure: as §1, §2, §3

Candida parapsilosis = test: Radial diffusion assay, Candida species (Table 2); type: cell-based
Procedure: as §1, §2, §3

[1] = tested on: C. albicans (SLU-1 and other strains); type: cell-based, Candida albicans
Procedure: In additional experiments, a fluorescence-activated cell sorter (FACS) based assay was developed to test the fungicidal activity of the peptides. […] Difco) agar. Several colonies were picked from the agar plate and inoculated into 5 mL of Sabouraud's Dextrose media in a sterile 10 mL polypropylene tube. The fungal cultures were incubated for about 18 hours at 30° C. […] The culture were centrifuged at 3000 rpm for 5 minutes (Sorvall RT 6000B). After centrifugation, the supernatant was decanted leaving the fungal pellets in the centrifuge tubes. The pellets were resuspended in 15 mL of SDB. Both suspensions were combined into one tube and mixed to generate a stock culture. […] After determining the concentration of the stock, appropriate dilutions were made with Sabouraud's Dextrose media to obtain 100 mL of 1×10^6 cell/mL. […] After the 1 hour incubation, all the tubes were centrifuged at 3000 rpm for 5 minutes. […] Louis, Mo.) in Dulbecco's PBS (DPBS, GIBCO, Grand Island, N.Y.) except the autofluorescence control, which was resuspended in DPBS alone. The tubes were mixed and incubated in the dark at room temperature for at least 20 minutes. […] The settings were adjusted appropriately to the following approximate parameters: Cells were analyzed (10,000 cells/tube) and their respective fluorescence determined. […] The population of dead (i.e., propidium iodide stained) fungal cells was determined by a fluorescence threshold between the negative control and positive control.

Candida albicans = test: Radial diffusion assay, Candida species (Table 2); type: cell-based; conditions: higher effective concentration of agarose than Table 1
in vitro = in vitro ADME, rat or human serum; conditions: serum, half-life of peptide in serum as detected by HPLC analysis; read-out: HPLC Peptide in Serum t ½ (converted)
Procedure: For these serum stability experiments, peptides were prepared by solid phase peptide sythesis and purified to 94% or greater purity as described in Example 1. Blood was collected from metaphane anesthesized rats by aortic bleed into Vacutainer™ tubes and allowed to clot at room temperature for approximately 30 minutes, then centrifuged at 3000 rpm (about 1000×g) for 10 minutes at room temperature and the serum aspirated. In addition, frozen human serum (North American Biologics, Inc., Miami, Fla., cat. no. 2140, lot no. 94115) was thawed at room temperature and filtered through a 0.45 μm membrane before use.
A 1 mg/mL solution of an exemplary XMP peptide to be tested was added to an equal volume of either rat or human serum described above and maintained at 37° C. At 0, 1, 2, and 4 hours, 100 μL were removed and processed by solid phase extraction for HPLC analysis as follows. Serum samples were prepared for HPLC using C-18 Sep-Pak cartridges (1 mL cartridge with 100 mg of sorbent, Waters Corp., Milford, Mass.). One hundred μL of serum sample were added to an equal volume of 1% TFA and mixed for 30 seconds on a Vortex mixer. The sample was then applied to a C-18 Sep-Pak cartridge that had been conditioned by washing with 1 mL of methanol followed by 1 mL Milli-Q water. Weakly reed components were eluted by washing with 1 mL of 0. 1% TFA. The bound peptide was eluted with two volumes of 250 μL 80% acetonitrile/0.065% TFA.
The material eluted from the Sep-Pak cartridge was analyzed on a Michrom Ultaafast Microprotein Analyzer equipped with a 150 mm×1 mm, 5μ particle, 300 Å pore C-8 Zorbax column. The column oven was set to 40° C., the flow rate was 100 μL/minute, and injection volumes were typically 5-10 μL. HPLC was performed using 5% acetonitrile/0.1% TFA in water as mobile phase A, and 80% acetonitrile/0.065% TFA as mobile phase B. The eluate was monitored spectiophotometrically at 214 nm. Peptide standards were dissolved in mobile phase A at 0. 1 mg/mL. The gradient was 25-35% B/10 minutes followed by a 5 minute wash step of 100% B and reequilibration at 25% B for 10 minutes.

Compound | Anti-fungal activity: pmol/30 mm^2 zone, Candida krusei (Candida krusei) | Anti-fungal activity: pmol/30 mm^2 zone, Candida tropicalis (Candida tropicalis) [pmol/30 mm^2 zone] | Anti-fungal activity: pmol/30 mm^2 zone, Candida glabrata (Candida glabrata) | Anti-fungal activity: pmol/30 mm^2 zone, Candida lusitaniae (Candida lusitaniae) [pmol/30 mm^2 zone] | Anti-fungal activity: pmol/30 mm^2 zone, Candida parapsilosis (Candida parapsilosis) | Activity of peptides on C. albicans SLU-1, IC50 ([1]; Table 5, percentage of dead cells, 1 hour, 30° C.) [mg/L] | Anti-fungal activity: pmol/30 mm^2 zone, Candida albicans (Candida albicans) | half-life at 0.5 mg/mL (in vitro) [h] | Activity on various strains of C. albicans, IC50, 10231 ([1]; SLU-1 and other strains) [mg/L] | Activity on various strains of C. albicans, IC50, 14053 ([1]; SLU-1 and other strains) [mg/L] | Activity on various strains of C. albicans, IC50, 26555 ([1]; SLU-1 and other strains) [mg/L] | Activity on various strains of C. albicans, IC50, 90028 ([1]; SLU-1 and other strains) [mg/L] | Activity on various strains of C. albicans, IC50, SLU#1 ([1]; SLU-1 and other strains) [mg/L]
C[C@@H]1[C@H](O)[C@@H](C)/C=C/C=C/C=C/C=C/C=C/C=C/C=C/[C@H](O[C@@H]2O[C@H](C)[C@@H](O)[C@H](N)[C@@H]2O)C[C@@H]2O[C@](O)(C[C@@H](O)C[C@@H](O)[C@H](O)CC[C@@H](O)C[C@@H](O)CC(=O)O[C@H]1C)C[C@H](O)[C@H]2C(=O)O [Amphotericin B, amphotericin B, reference compound] | 120 pmol/30 mm^2 zone | 108 | <17 pmol/30 mm^2 zone | 35 | 91 pmol/30 mm^2 zone | 79.36 | 11 pmol/30 mm^2 zone |  |  |  |  |  | 
H-KSKVGWLIQLFHKK-NH2 [XMP.13] | 1,747 pmol/30 mm^2 zone | 452 | 1,022 pmol/30 mm^2 zone | 746 | 1,502 pmol/30 mm^2 zone |  | 2,233 pmol/30 mm^2 zone | 2.5 |  |  |  |  | 
H-SKVKWLIQLFHKK-NH2 [XMP.284] |  |  |  |  |  |  |  | 4.2 | 1.86 | 0.50 | 0.59 | 1.08 | 0.31
